Measurements as given in publication PMC8950706, “Influence of Substitutions in the Binding Motif of Proline-Rich Antimicrobial Peptide ARV-1502 on 70S Ribosome Binding and Antimicrobial Activity” (International Journal of Molecular Sciences, 2022).
Square brackets hold non-standard residues; d marks the D form. Peptide text beside a SMILES is read from it. Ac6c = NC1(C(=O)O)CCCCC1

Legend:
E. coli 70S ribosome = assay: Competitive FP binding screening assay with Cf-ARV-1502 (relative FP); set-up: species or system E. coli BW25113; conditions: Figure 3: peptide concentration 1.2 µmol/L
Procedure: E. coli 70S ribosomes were prepared using a previously described protocol that was slightly modified. Briefly, E. coli BW25113 was cultivated in Luria-Bertani (LB) medium and cells were harvested after reaching an optical density of ~4 at 600 nm by centrifugation (5000× g, 15 min, 4 °C, Rotor JLA 8.100, Avanti J-20 XP, Beckmann Coulter, Krefeld, Germany). The cell pellets were frozen and stored at −80 °C. Cells were resuspended in ribosome buffer (2 mL/g cells; 20 mmol/L HEPES-KOH, 6 mmol/L MgCl2, 30 mmol/L NH4Cl, 4 mmol/L 2-mercaptoethanol, pH 7.6). Lysozyme (0.25 g/L cell suspension) was added, and the mixture was incubated on ice for 30 min. Cells were disrupted using the bead mill homogenizer FastPrep-24™ 5G (40 s, 4 m/s, 6 cycles, MP Biomedicals Germany GmbH, Eschwege, Germany) and zirconia/silica beads (0.1 mm diameter). The lysate was centrifuged (1500× g, 5 min, 4 °C, Rotor S4180, Allegra 21R, Beckmann Coulter) and the supernatant was incubated with DNase (5 U/mL) on ice for 60 min. The cell debris was removed by two centrifugation steps (16,000× g, 30 min, 4 °C followed by 32,000× g, 60 min, 4 °C, Rotor JA 30.50 Ti, Avanti J-30I, Beckmann Coulter). The ribosome was pelleted by ultracentrifugation (165,000× g, 17 h, 4 °C, Rotor 70 Ti, Optima LE-80K, Beckmann Coulter), resuspended in ribosome buffer (0.1 mL/g pellet), and stored at −80 °C. The ribosome concentration was determined by recording the absorbance of RNA at 260 nm (NanoPhotometer NP80, Implen GmbH, München, Germany) assuming that 1 AU corresponds to a ribosome concentration of 28 nmol/L. The molecular weight of the E. coli 70S ribosome was assumed to be 2.3 MDa.
E. coli 70S ribosomes and Cf-ARV-1502 were incubated with four different concentrations of unlabeled peptides chosen based on the IC50 curves of reference peptide ARV-1502. Each peptide was diluted in ribosome buffer to obtain a concentration of 4.8 µmol/L and transferred to a 384-well-plate. Peptides were then twofold serially diluted in four steps from 4.8 to 0.6 µmol/L (20 µL). The ribosome extract was diluted in ribosome buffer to reach a concentration of 2 µmol/L and 10 µL were added to each well to obtain a final ribosome concentration of 0.5 µmol/L. Plates were centrifuged (2 min, 500× g, Rotor S2096, Allegra^TM 21R, Beckmann Coulter) and incubated at 28 °C for 90 min. Cf-labeled ARV-1502 was added (10 µL; final concentration of 20 nmol/L) and the plates were again centrifuged and incubated (28 °C, 90 min). After incubation, fluorescence polarization was recorded on a […]^TM microplate reader (λex = 485 nm, λem = 535 nm).
On each plate 12 minimum (30 µL ribosome buffer and 10 µL Cf-ARV-1502) and 12 maximum (20 µL ribosome buffer, 10 µL ribosome solution and 10 µL Cf-ARV-1502) control samples were added. Fluorescence polarization of screening samples was normalized to the fluorescence polarization of these control samples. All screening samples were measured in triplicates and the whole experiment was repeated once on another day.

E. coli BW25113 = assay: MIC, liquid broth micro dilution, wild type; type: cell-based, Escherichia coli; conditions: for Minimal Inhibitory Concentration, 33% TSB, wt: 37 °C
Procedure: (§1) MIC values were determined using a liquid broth micro dilution assay in sterile 96-well plates (polystyrene F-bottom, Greiner Bio-One GmbH) and a total volume of 100 μL per well. Aqueous peptide solutions (10 g/L) were serially twofold diluted in 25% Mueller-Hinton broth 2 (25% MBH2) or 33% tryptic soy broth (33% TSB) starting at a peptide concentration of 128 mg/L (50 μL/well). Overnight cultures of bacteria grown in 25% MHB2 (or 33% TSB) were diluted 30-fold in 25% MHB2 (or 33% TSB). After an incubation period of 4 h (37 °C, 200 rpm), cells were diluted to 1.5 × 10^7 cfu/mL, based on a McFarland test, and 50 μL were added to each well (final concentration of 7.5 × 10^6 […]). The plates were incubated (37 °C, 20 h) and the optical density was recorded at 595 nm using a microplate reader ([…]^TM, Beckmann Coulter). The MIC was defined as the lowest peptide concentration preventing visible bacterial growth.

[1] = system: E. coli BW25113 ∆sbmA ∆mdtM; type: cell-based, Escherichia coli; conditions: for Minimal Inhibitory Concentration, 25% MHB2, ∆sbmA ∆mdtM: 25% MHB2, 37 °C; for Minimal Inhibitory Concentration, 25% MHB2, ∆sbmA ∆mdtM / Minimal Inhibitory Concentration, 33% TSB, ∆sbmA ∆mdtM: 20 h, at least duplicates on two days, * once on two days, ** duplicate on one day; for Minimal Inhibitory Concentration, 33% TSB, ∆sbmA ∆mdtM: 37 °C; for Effect of the additional mdtM knockout on antibacterial activity: ∆sbmA ∆mdtM compared with ∆sbmA
Procedure: as §1

E. coli BW25113 ∆sbmA = type: cell-based, Escherichia coli; conditions: 20 h, at least duplicates on two days, * once on two days, ** duplicate on one day; for Minimal Inhibitory Concentration, 25% MHB2, ∆sbmA: 25% MHB2, 37 °C; for Minimal Inhibitory Concentration, 33% TSB, ∆sbmA: 37 °C
Procedure: as §1

[2] = 20 h, at least duplicates on two days, * once on two days, ** duplicate on one day

| Compound | Inhibition of Cf-ARV-1502 binding to the 70S ribosome (in words) (E. coli 70S ribosome) | Minimal Inhibitory Concentration, 25% MHB2, wt (E. coli BW25113; 25% MHB2, 37 °C, 20 h, at least duplicates on two days, * once on two days, ** duplicate on one day) | Minimal Inhibitory Concentration, 33% TSB, wt (E. coli BW25113; [2]) | Minimal Inhibitory Concentration, 25% MHB2, ∆sbmA ∆mdtM [1] | Minimal Inhibitory Concentration, 33% TSB, ∆sbmA ∆mdtM [1] | Effect of the additional mdtM knockout on antibacterial activity [1] | Minimal Inhibitory Concentration, 25% MHB2, ∆sbmA (E. coli BW25113 ∆sbmA) | Minimal Inhibitory Concentration, 33% TSB, ∆sbmA (E. coli BW25113 ∆sbmA) | MIC / activity against E. coli (E. coli BW25113; BW25113, 4 h) | Minimal Inhibitory Concentration, 25% MHB2, wt (E. coli BW25113; BW25113, 20 h) |
| --- | --- | --- | --- | --- | --- | --- | --- | --- | --- | --- |
| CC(C)C[C@H](NC(=O)[C@H](Cc1ccc(O)cc1)NC(=O)[C@@H]1CCCN1C(=O)[C@H](CCCNC(=N)N)NC(=O)[C@@H]1CCCN1C(=O)[C@H](Cc1ccccc1)NC(=O)[C@H](Cc1ccccc1)NC(=O)[C@@H]1CCCN1C(=O)[C@H](CCCNC(=N)N)NC(=O)C1(N)CCCCC1)C(=O)N[C@@H](CO)C(=O)N[C@@H](CCCNC(=N)N)C(=O)N1CCC[C@H]1C(=O)N[C@@H](CCCNC(=N)N)C(=O)N1CCC[C@H]1C(=O)N1CCC[C@H]1C(=O)N[C@@H](CCCNC(=N)N)C(=O)N1CCC[C@H]1C(=O)N[C@H](C(=O)N[C@@H](CCCNC(=N)N)C(N)=O)C(C)C [Peptide 99] (H-[Ac6c]RPFFPRPYLSRPRPPRPVR-NH2) | did not inhibit the binding of Cf-ARV-1502 | 16 to 32 µg/mL | 64 µg/mL | 32 µg/mL | 128 µg/mL | no effect | 32 µg/mL | 128 µg/mL |  |  |
| CC(C)[C@H](NC(=O)[C@@H]1CCCN1C(=O)[C@H](CCCNC(=N)N)NC(=O)[C@@H]1CCCN1C(=O)[C@@H]1CCCN1C(=O)[C@H](CCCNC(=N)N)NC(=O)[C@@H]1CCCN1C(=O)[C@H](CCCNC(=N)N)NC(=O)[C@@H]1CCCN1C(=O)[C@H](Cc1ccccc1)NC(=O)[C@H](CCCCN)NC(=O)[C@@H]1CCCN1C(=O)[C@H](CCCNC(=N)N)NC(=O)[C@@H]1CCCN1C(=O)[C@H](CCCCN)NC(=O)[C@H](CC(=O)O)NC(=O)[C@@H]1CCCN1C(=O)[C@H](CCCNC(=N)N)NC(=O)C1(N)CCCCC1)C(=O)N[C@@H](CCCNC(=N)N)C(N)=O [Peptide 123] (H-[Ac6c]RPDKPRPKFPRPRPPRPVR-NH2) | did not inhibit the binding of Cf-ARV-1502 |  | 128 µg/mL | 128 µg/mL | >128 µg/mL | weakened the activity | 64 µg/mL | >128 µg/mL | 16 to 32 µg/mL | 32 µg/mL |
